Results as given in patent US20230085307A1, “PYRIDAZINONE COMPOUND AND HERBICIDE” (NISSAN CHEMICAL CORPORATION, priority 2019, published 2023).

How the values were obtained:
barnyard grass [1] = assay: Test Example 3: herbicidal effect by foliage application, Wagner pot (Table 18, symbol H); assay type: in vivo, barnyard grass (Echinochloa crus-galli)
Method in brief: (§1)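 Plants were sown in alluvial soil held under 0.1–0.5 cm standing water and grown 14 days in a greenhouse at 25–30 °C. An emulsifiable formulation, water-diluted to the set dose, was then sprayed onto the foliage, and effects were scored three weeks later using previously defined criteria.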

lambsquarters [2] = assay: Test Example 4: herbicidal effect by soil treatment (Table 19, symbol O); assay type: in vivo, lambsquarters (Chenopodium album)
Method in brief: (§2)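 Herbicidal effect was rated 3 weeks after treatment, using the scoring criteria of an earlier test. The compound, formulated as an emulsion and diluted in water to a set herbicide amount, had been sprayed uniformly on soil over freshly sown seeds. Growth took place in a greenhouse at 25° C. to 30° C.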

southern crabgrass [3] = assay: Test Example 5: herbicidal effect by foliage application, plastic box (Table 20, symbol F); assay type: in vivo, southern crabgrass (Digitaria ciliaris); conditions: foliage application
Method in brief: (§3)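 Foliar spray test: emulsion formulation diluted in water to a set application rate, sprayed onto 14-day-old plants raised in diluvial soil at 25° C to 30° C under glass. Both herbicidal effect and crop effect rated visually three weeks later.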

velvetleaf [4] = assay: Test Example 5: herbicidal effect by foliage application, plastic box (Table 20, symbol M); assay type: in vivo, velvetleaf (Abutilon theophrasti); conditions: foliage application
Method in brief: as §3

green foxtail [5] = assay: Test Example 4: herbicidal effect by soil treatment (Table 19, symbol G); assay type: in vivo, green foxtail (Setaria viridis)
Method in brief: as §2

windgrass [6] = assay: Test Example 5: herbicidal effect by foliage application, plastic box (Table 20, symbol L); assay type: in vivo, windgrass (Apera spica-venti); conditions: foliage application
Method in brief: as §3

persian speedwell [7] = assay: Test Example 5: herbicidal effect by foliage application, plastic box (Table 20, symbol R); assay type: in vivo, Persian speedwell (Veronica persica); conditions: foliage application
Method in brief: as §3

redroot pigweed [8] = assay: Test Example 4: herbicidal effect by soil treatment (Table 19, symbol N); assay type: in vivo, redroot pigweed (Amaranthus retroflexus)
Method in brief: as §2

green foxtail [9] = assay: Test Example 5: herbicidal effect by foliage application, plastic box (Table 20, symbol G); assay type: in vivo, green foxtail (Setaria viridis); conditions: foliage application
Method in brief: as §3

false cleavers = assay: Test Example 5: herbicidal effect by foliage application, plastic box (Table 20, symbol Q); assay type: in vivo, false cleavers (Galium spurium); conditions: foliage application
Method in brief: as §3

wild oat [10] = assay: Test Example 5: herbicidal effect by foliage application, plastic box (Table 20, symbol I); assay type: in vivo, wild oat (Avena fatua); conditions: foliage application
Method in brief: as §3

blackgrass [11] = assay: Test Example 5: herbicidal effect by foliage application, plastic box (Table 20, symbol J); assay type: in vivo, blackgrass (Alopecurus myosuroides); conditions: foliage application
Method in brief: as §3

Italian ryegrass [12] = assay: Test Example 5: herbicidal effect by foliage application, plastic box (Table 20, symbol K); assay type: in vivo, Italian ryegrass (Lolium multiflorum); conditions: foliage application
Method in brief: as §3

Italian ryegrass [13] = assay: Test Example 4: herbicidal effect by soil treatment (Table 19, symbol K); assay type: in vivo, Italian ryegrass (Lolium multiflorum)
Method in brief: as §2

redroot pigweed [14] = assay: Test Example 5: herbicidal effect by foliage application, plastic box (Table 20, symbol N); assay type: in vivo, redroot pigweed (Amaranthus retroflexus); conditions: foliage application
Method in brief: as §3

rice flat sedge = assay: Test Example 3: herbicidal effect by foliage application, Wagner pot (Table 18, symbol E); assay type: in vivo, rice flat sedge (Cyperus iria)
Method in brief: as §1

windgrass [15] = assay: Test Example 4: herbicidal effect by soil treatment (Table 19, symbol L); assay type: in vivo, windgrass (Apera spica-venti)
Method in brief: as §2

chickweed [16] = assay: Test Example 4: herbicidal effect by soil treatment (Table 19, symbol P); assay type: in vivo, common chickweed (Stellaria media)
Method in brief: as §2

barnyard grass [17] = assay: Test Example 4: herbicidal effect by soil treatment (Table 19, symbol H); assay type: in vivo, barnyard grass (Echinochloa crus-galli)
Method in brief: as §2

wild oat [18] = assay: Test Example 4: herbicidal effect by soil treatment (Table 19, symbol I); assay type: in vivo, wild oat (Avena fatua)
Method in brief: as §2

persian speedwell [19] = assay: Test Example 4: herbicidal effect by soil treatment (Table 19, symbol R); assay type: in vivo, Persian speedwell (Veronica persica)
Method in brief: as §2

blackgrass [20] = assay: Test Example 4: herbicidal effect by soil treatment (Table 19, symbol J); assay type: in vivo, blackgrass (Alopecurus myosuroides)
Method in brief: as §2

barnyard grass [21] = assay: Test Example 5: herbicidal effect by foliage application, plastic box (Table 20, symbol H); assay type: in vivo, barnyard grass (Echinochloa crus-galli); conditions: foliage application
Method in brief: as §3

southern crabgrass [22] = assay: Test Example 4: herbicidal effect by soil treatment (Table 19, symbol F); assay type: in vivo, southern crabgrass (Digitaria ciliaris)
Method in brief: as §2

velvetleaf [23] = assay: Test Example 4: herbicidal effect by soil treatment (Table 19, symbol M); assay type: in vivo, velvetleaf (Abutilon theophrasti)
Method in brief: as §2

lambsquarters [24] = assay: Test Example 5: herbicidal effect by foliage application, plastic box (Table 20, symbol O); assay type: in vivo, lambsquarters (Chenopodium album); conditions: foliage application
Method in brief: as §3

chickweed [25] = assay: Test Example 5: herbicidal effect by foliage application, plastic box (Table 20, symbol P); assay type: in vivo, common chickweed (Stellaria media); conditions: foliage application
Method in brief: as §3

Chinese sprangletop = assay: Test Example 3: herbicidal effect by foliage application, Wagner pot (Table 18, symbol D); assay type: in vivo, chinese sprangletop (Leptochloa chinensis)
Method in brief: as §1

[26] = AAH 80 g/ha, three weeks after application
[27] = 320 g/ha, evaluated three weeks after application

In the case of `CCCC(=O)Oc1c(OC)nn(C)c(=O)c1-c1c(-c2ccc(OC)c(OC)c2)sc2ccccc12` [1-183], the “herbicidal effect on H (barnyard grass), rating 0-5” value (barnyard grass [1]; 80 g/ha) is reported as 3 (Herbicidal rate of 40% or more and less than 70%), the “O: lambsquarters, herbicidal effect rating” value (lambsquarters [2]; AAH 80 g/ha) is reported as 0 (Herbicidal rate of 5% or less (almost no effect)) and the “F: southern crabgrass, herbicidal effect” value (southern crabgrass [3]; [26]) is reported as 1 (Herbicidal rate of 5% or more and less than 20%). For the same compound, the “M: velvetleaf, herbicidal effect” value (velvetleaf [4]; [26]) was 1 (Herbicidal rate of 5% or more and less than 20%), the “G: green foxtail, herbicidal effect rating” value (green foxtail [5]; AAH 80 g/ha) was 0 (Herbicidal rate of 5% or less (almost no effect)) and the “L: windgrass, herbicidal effect” value (windgrass [6]; [26]) was 0 (Herbicidal rate of 5% or less (almost no effect)). For the same compound, the “R: persian speedwell, herbicidal effect” value (persian speedwell [7]; [26]) was 5 (Herbicidal rate of 90% or more (almost completely withered)), the “N: redroot pigweed, herbicidal effect rating” value (redroot pigweed [8]; AAH 80 g/ha) was 0 (Herbicidal rate of 5% or less (almost no effect)) and the “G: green foxtail, herbicidal effect” value (green foxtail [9]; [26]) was 4 (Herbicidal rate of 70% or more and less than 90%). The “Q: false cleavers, herbicidal effect” value (false cleavers; [26]) was 2 (Herbicidal rate of 20% or more and less than 40%), the “I: wild oat, herbicidal effect” value (wild oat [10]; [26]) was 0 (Herbicidal rate of 5% or less (almost no effect)) and the “J: blackgrass, herbicidal effect” value (blackgrass [11]; [26]) was 0 (Herbicidal rate of 5% or less (almost no effect)). The “K: Italian ryegrass, herbicidal effect” value (Italian ryegrass [12]; [26]) was 1 (Herbicidal rate of 5% or more and less than 20%), the “K: Italian ryegrass, herbicidal effect rating” value (Italian ryegrass [13]; AAH 80 g/ha) was 0 (Herbicidal rate of 5% or less (almost no effect)) and the “N: redroot pigweed, herbicidal effect” value (redroot pigweed [14]; [26]) was 3 (Herbicidal rate of 40% or more and less than 70%). The “herbicidal effect on E (rice flat sedge), rating 0-5” value (rice flat sedge; 80 g/ha) was 0 (Herbicidal rate of 5% or less (almost no effect)), the “L: windgrass, herbicidal effect rating” value (windgrass [15]; AAH 80 g/ha) was 0 (Herbicidal rate of 5% or less (almost no effect)) and the “P: chickweed, herbicidal effect rating” value (chickweed [16]; AAH 80 g/ha) was 3 (Herbicidal rate of 40% or more and less than 70%). The “H: barnyard grass, herbicidal effect rating” value (barnyard grass [17]; AAH 80 g/ha) was 0 (Herbicidal rate of 5% or less (almost no effect)), the “I: wild oat, herbicidal effect rating” value (wild oat [18]; AAH 80 g/ha) was 0 (Herbicidal rate of 5% or less (almost no effect)) and the “R: persian speedwell, herbicidal effect rating” value (persian speedwell [19]; AAH 80 g/ha) was 4 (Herbicidal rate of 70% or more and less than 90%). For the same compound, the “J: blackgrass, herbicidal effect rating” value (blackgrass [20]; AAH 80 g/ha) was 0 (Herbicidal rate of 5% or less (almost no effect)), the “H: barnyard grass, herbicidal effect” value (barnyard grass [21]; [26]) was 4 (Herbicidal rate of 70% or more and less than 90%) and the “F: southern crabgrass, herbicidal effect rating” value (southern crabgrass [22]; AAH 80 g/ha) was 0 (Herbicidal rate of 5% or less (almost no effect)). For the same compound, the “M: velvetleaf, herbicidal effect rating” value (velvetleaf [23]; AAH 80 g/ha) was 0 (Herbicidal rate of 5% or less (almost no effect)), the “O: lambsquarters, herbicidal effect” value (lambsquarters [24]; [26]) was 3 (Herbicidal rate of 40% or more and less than 70%) and the “P: chickweed, herbicidal effect” value (chickweed [25]; [26]) was 4 (Herbicidal rate of 70% or more and less than 90%). For the same compound, the “herbicidal effect on D (Chinese sprangletop), rating 0-5” value (Chinese sprangletop; 80 g/ha) was 2 (Herbicidal rate of 20% or more and less than 40%).

For `Cc1nn(C)c(=O)c(-c2c(-c3ccc4c(c3)OCO4)sc3ccc(F)cc23)c1O` [2-090], the “herbicidal effect on H (barnyard grass), rating 0-5” value (barnyard grass [1]; 320 g/ha) was 5 (Herbicidal rate of 90% or more (almost completely withered)), the “herbicidal effect rating, O: lambsquarters” value (lambsquarters [2]; 320 g/ha) was 5 (Herbicidal rate of 90% or more (almost completely withered)) and the “herbicidal effect on F: southern crabgrass” value (southern crabgrass [3]; [27]) was 4 (Herbicidal rate of 70% or more and less than 90%). For the same compound, the “herbicidal effect on M: velvetleaf” value (velvetleaf [4]; [27]) was 5 (Herbicidal rate of 90% or more (almost completely withered)), the “herbicidal effect rating, G: green foxtail” value (green foxtail [5]; 320 g/ha) was 3 (Herbicidal rate of 40% or more and less than 70%) and the “herbicidal effect on L: windgrass” value (windgrass [6]; [27]) was 5 (Herbicidal rate of 90% or more (almost completely withered)). The “herbicidal effect on R: persian speedwell” value (persian speedwell [7]; [27]) was 5 (Herbicidal rate of 90% or more (almost completely withered)), the “herbicidal effect rating, N: redroot pigweed” value (redroot pigweed [8]; 320 g/ha) was 5 (Herbicidal rate of 90% or more (almost completely withered)) and the “herbicidal effect on G: green foxtail” value (green foxtail [9]; [27]) was 5 (Herbicidal rate of 90% or more (almost completely withered)). For the same compound, the “herbicidal effect on Q: false cleavers” value (false cleavers; [27]) was 4 (Herbicidal rate of 70% or more and less than 90%), the “herbicidal effect on I: wild oat” value (wild oat [10]; [27]) was 3 (Herbicidal rate of 40% or more and less than 70%) and the “herbicidal effect on J: blackgrass” value (blackgrass [11]; [27]) was 4 (Herbicidal rate of 70% or more and less than 90%). The “herbicidal effect on K: Italian ryegrass” value (Italian ryegrass [12]; [27]) was 5 (Herbicidal rate of 90% or more (almost completely withered)), the “herbicidal effect rating, K: Italian ryegrass” value (Italian ryegrass [13]; 320 g/ha) was 4 (Herbicidal rate of 70% or more and less than 90%) and the “herbicidal effect on N: redroot pigweed” value (redroot pigweed [14]; [27]) was 5 (Herbicidal rate of 90% or more (almost completely withered)). For the same compound, the “herbicidal effect on E (rice flat sedge), rating 0-5” value (rice flat sedge; 320 g/ha) was 5 (Herbicidal rate of 90% or more (almost completely withered)), the “herbicidal effect rating, L: windgrass” value (windgrass [15]; 320 g/ha) was 0 (Herbicidal rate of 5% or less (almost no effect)) and the “herbicidal effect rating, P: chickweed” value (chickweed [16]; 320 g/ha) was 4 (Herbicidal rate of 70% or more and less than 90%). For the same compound, the “herbicidal effect rating, H: barnyard grass” value (barnyard grass [17]; 320 g/ha) was 2 (Herbicidal rate of 20% or more and less than 40%), the “herbicidal effect rating, I: wild oat” value (wild oat [18]; 320 g/ha) was 0 (Herbicidal rate of 5% or less (almost no effect)) and the “herbicidal effect rating, R: persian speedwell” value (persian speedwell [19]; 320 g/ha) was 5 (Herbicidal rate of 90% or more (almost completely withered)). The “herbicidal effect rating, J: blackgrass” value (blackgrass [20]; 320 g/ha) was 2 (Herbicidal rate of 20% or more and less than 40%), the “herbicidal effect on H: barnyard grass” value (barnyard grass [21]; [27]) was 5 (Herbicidal rate of 90% or more (almost completely withered)) and the “herbicidal effect rating, F: southern crabgrass” value (southern crabgrass [22]; 320 g/ha) was 2 (Herbicidal rate of 20% or more and less than 40%). The “herbicidal effect rating, M: velvetleaf” value (velvetleaf [23]; 320 g/ha) was 5 (Herbicidal rate of 90% or more (almost completely withered)), the “herbicidal effect on O: lambsquarters” value (lambsquarters [24]; [27]) was 5 (Herbicidal rate of 90% or more (almost completely withered)) and the “herbicidal effect on P: chickweed” value (chickweed [25]; [27]) was 5 (Herbicidal rate of 90% or more (almost completely withered)). The “herbicidal effect on D (Chinese sprangletop), rating 0-5” value (Chinese sprangletop; 320 g/ha) was 2 (Herbicidal rate of 20% or more and less than 40%).
